What was measured:
[1] = target: MtmOIV (Streptomyces argillaceus, UniProt Q194P4, R173A, form not given); assay: NADPH oxidation, fluorescence; type: biochemical; conditions: 2 mM premithramycin B, 0.1 mM FAD, O2; 100 mM Tris-HCl pH 8.25, 30 °C
[2] = target: T1, MtmOIV (Streptomyces argillaceus, UniProt Q194P4); assay: NADPH oxidation, fluorescence; type: biochemical; conditions: 2 mM premithramycin B, 0.1 mM FAD, O2; 100 mM Tris-HCl pH 8.25, 30 °C
[3] = target: T1, MtmOIV; assay: X-ray crystal structure, […] Å; type: binding; conditions: non-covalently bound

NC(=O)C1=CN([C@@H]2O[C@H](COP(=O)(O)OP(=O)(O)OC[C@H]3O[C@@H](n4cnc5c(N)ncnc54)[C@H](OP(=O)(O)O)[C@@H]3O)[C@@H](O)[C@H]2O)C=CC1 [NADPH]
Km [1]: 528 ± 63 µM | Km [2]: 372 ± 68 µM

Cc1cc2nc3c(=O)[nH]c(=O)nc-3n(C[C@H](O)[C@H](O)[C@H](O)COP(=O)(O)OP(=O)(O)OC[C@H]3O[C@@H](n4cnc5c(N)ncnc54)[C@H](O)[C@@H]3O)c2cc1C [FAD]
X-ray crystal structure, 2.0 Å [3]: a single non-covalently bound FAD cofactor
